According to patent US9820970B2, “Method and agent for the treatment and prophylaxis of diseases caused by (+)RNA-containing viruses” (OBSSCHESTVO S OGRANICHENNOI OTVETSTVENNOSTIYU …, priority 2012, dated 2017):
Where “and” joins values, the source holds several entries; their conditions need not be identical. Equal values may be shown once.

How the values were obtained:
dengue fever virus = test: Experimental form of dengue fever, virus proliferation in the blood of white mice; format: in vivo; settings: for Level of virus accumulation in the blood, lg PFU/ml: infected intracerebrally
Procedure: To determine antiviral activity, white mice were infected intracerebrally with a dengue fever virus. […] Infected animals were monitored for 21 days. Biological samples were evaluated on day 5 after infection.

[1] = test system: West Nile virus strain Eg101; test: Experimental form of West Nile Fever in white mice; settings: for Protective ratio, % / Average lifetime / Extension of the average lifetime, Δ: 5 mg/kg orally; for Protective ratio, %: 10LD50 subcutaneously; for Average lifetime / Extension of the average lifetime, Δ: 10LD50
Procedure: In the experiment West Nile virus strain Eg101 was used. Infected animals were monitored for 21 days. Their death was controlled, and the average lifetime of the white mice were calculated in the experimental and control groups.
The main criteria of the in vivo effectiveness were the values of protection of the laboratory animals against death and the average lifetime of the animals in a group.

[2] = Adverse side effects during long-term administration; settings: long-term administration in therapeutic doses or doses greater by an order of magnitude
HCXV virus = test: Protective effectiveness against Coxsackie virus (HCXV) infection in mice; format: in vivo, white mice; settings: for Total mortality rate: 10LD50 intramuscularly
TBE virus strain Sof′ in = test system: TBE virus strain Sof′ in; parameters: species or system white mice; settings: mouse, in vivo
[3] = test system: human rhinovirus strain (HRV 1B); test: Antiviral activity against human rhinovirus on an in vivo experimental model (virus in mouse lungs); parameters: species or system mice; settings: for Infectious virus titer in lungs, lg, TCID50: orally once daily for 3 days from 12 h after infection; for Suppression of the virus reproduction (Δ lg): orally once daily for 3 days, vs normal saline
[4] = ribavirin, treatment scheme +24 h to +120 h
[5] = 20 mg/kg, treatment scheme +24 h to +120 h
[6] = 5 mg/kg orally, prevention scheme −96 h to −1 h
[7] = 5 mg/kg orally, treatment scheme +24 h to +168 h
[8] = 30/15 mg/kg, treatment scheme +24 h to +120 h
[9] = 0.3 mg/kg orally once daily for 5 days from 24 h after infection
[10] = 3 mg/kg orally once daily for 5 days from 24 h after infection
[11] = 30 mg/kg orally once daily for 5 days from 24 h after infection
[12] = prevention scheme −96 h to −1 h
[13] = treatment scheme +24 h to +168 h
[14] = 30 mg/kg, single administration −144 h before infection

With NC(=O)c1ncn([C@@H]2O[C@H](CO)[C@@H](O)[C@H]2O)n1 [Ribavirin, ribavirin, reference compound] the “Degree of inhibition of the virus accumulation, %” value (from here on “Degree of inhibition … %”) (dengue fever virus; [4]) was 83.4%, the “Reduction in the level of virus accumulation, lg” value (“Reduction in the level” for short) (dengue fever virus; [4]) was 1.0 lg and the “Level of virus accumulation in the blood, lg PFU/ml” value (“Level … lg PFU/ml” below) (dengue fever virus; [4]) was 6.4 lg PFU/ml. For the same molecule, the “Protection against death, % of animals” value ([1]; 20 mg/kg, prevention scheme) was 50%, the “Average lifetime of animals in a group” value [1, 5] was 7.2 days and the “Extension of the average lifetime of animals in a group, Δ” value (from here on “Extension … in a group, Δ”) [1, 5] was 0.2 days. For the same molecule, the “Protection against death, %” value [1, 5] was 10.0%.
For O=C(O)CCCC(=O)NCCc1c[nH]cn1 [Glutaryl histamine, glutaryl histamine], the Adverse side effects [2] was “no adverse side effects have been registered”, the “Degree of inhibition … %” value (dengue fever virus; [6]) was 95.5% and the “Reduction in the level” value (dengue fever virus; [6]) was 1.6 lg. For the same molecule, the “Level … lg PFU/ml” value (dengue fever virus; 5 mg/kg orally, prevention scheme −96 h to −1 h, day 5 after infection) was 5.0 lg PFU/ml, the “Degree of inhibition … %” value (dengue fever virus; [7]) was 98.6% and the “Reduction in the level” value (dengue fever virus; [7]) was 1.8 lg. For the same molecule, the “Level … lg PFU/ml” value (dengue fever virus; 5 mg/kg orally, treatment scheme +24 h to +168 h, day 5 after infection) was 4.8 lg PFU/ml, the “Degree of inhibition … %” value (dengue fever virus; [8]) was 99.6% and the “Reduction in the level” value (dengue fever virus; [8]) was 2.6 lg. For the same molecule, the “Level … lg PFU/ml” value (dengue fever virus; [8]) was 4.8 lg PFU/ml, the “Average lifetime, (%)” value (HCXV virus; [9]) was 24.4% and the “Extension of the days lifetime, Δ, days” value (HCXV virus; [9]) was “+14.4 days”. For the same molecule, the “Protective ratio, % average” value (HCXV virus; [9]) was 45.4%, the Total mortality rate (HCXV virus; [9]) was 42.9 and the “Average lifetime, (%)” value (HCXV virus; [10]) was 21.7%. The “Extension of the days lifetime, Δ, days” value (HCXV virus; [10]) was “+11.7 days”, the “Protective ratio, % average” value (HCXV virus; [10]) was 36.4% and the Total mortality rate (HCXV virus; [10]) was 50.0. The “Average lifetime, (%)” value (HCXV virus; [11]) was 19.6%, the “Extension of the days lifetime, Δ, days” value (HCXV virus; [11]) was “+9.6 days” and the “Protective ratio, % average” value (HCXV virus; [11]) was 27.4%. The Total mortality rate (HCXV virus; [11]) was 57.1, the “Protective ratio, %” value ([1]; prevention scheme −96 h, −72 h, −48 h, −24 h, −1 h) was 42.9% and the “Average lifetime” value [1, 12] was 11.2 days. The “Extension of the average lifetime, Δ” value [1, 12] was 4.2 days, the “Average lifetime” value [1, 13] was 9.8 days and the “Extension of the average lifetime, Δ” value [1, 13] was 2.8 days. For the same molecule, the “Protective ratio, %” value [1, 13] was 37.8%, the “Average lifetime of animals in a group” value [1, 14] was 10.8 days and the “Extension … in a group, Δ” value [1, 14] was 3.7 days. The “Protection against death, %” value [1, 14] was 40.0%, the “Protection against death, %” value ([1]; 30/15 mg/kg, treatment scheme +24 h, +48 h, +72 h, +96 h, +120 h) was 50.0% and the “Average lifetime of animals in a group” value [1, 8] was 11.5 days. For the same molecule, the “Extension … in a group, Δ” value [1, 8] was 4.5 days, the “Extension … in a group, Δ” value ([1]; 30/15 mg/kg, treatment scheme +24 h to +120 h, listed as glutaryl histamine) was 3.5 days and the “Average lifetime” value (TBE virus strain Sof′ in) was 15.1 days and 15.4 days and 13.6 days and 10.5 days and 10.1 days. For the same molecule, the “Extension of the average lifetime” value (TBE virus strain Sof′ in) was 3.1 days and 3.2 days, the “Extension of the average lifetime, Δ” value (TBE virus strain Sof′ in) was 3.9 days and 2.4 days and the “Protection against death, %” value (TBE virus strain Sof′ in) was 30.0% and 40.0%. The “Protective ratio, %” value (TBE virus strain Sof′ in) was 40% and 35%, the “Infectious virus titer in lungs, lg, TCID50” value (from here on “Infectious virus titer”) ([3]; 15 mg/ml, 48 hrs) was 2.8 ± 0.4 lg, TCID50 and the “Infectious virus titer” value ([3]; 15 mg/ml, 72 hrs) was 2.1 ± 0.3 lg, TCID50. The “Suppression of the virus reproduction (Δ lg)” value (shortened to “Suppression … (Δ lg)”) ([3]; 15 mg/ml, 48 hrs) was 1.3 Δ lg, the “Suppression … (Δ lg)” value ([3]; 15 mg/ml, 72 hrs) was 1.1 Δ lg and the “Infectious virus titer” value ([3]; 30 mg/ml, 48 hrs) was 1.5 ± 0.3 lg, TCID50. For the same molecule, the “Infectious virus titer” value ([3]; 30 mg/ml, 72 hrs) was 1.0 ± 0.3 lg, TCID50, the “Suppression … (Δ lg)” value ([3]; 30 mg/ml, 48 hrs) was 2.6 Δ lg and the “Suppression … (Δ lg)” value ([3]; 30 mg/ml, 72 hrs) was 2.2 Δ lg.
